ChEMBL document CHEMBL5331135, “Design, Synthesis, and Evaluation of Glucose Transporter Inhibitor-SN38 Conjugates for Targeting Colorectal Cancer” (J Med Chem, 2023)
pIC50: −log10 of the molar value.

Tests used:
HCT-116 [1] = assay: Cytotoxicity against human HCT-116 cells incubated for 48 hrs by SRB assay; assay type: functional, cell-based; settings: HCT-116, 48 h
COLO 205 [2] = assay: Cytotoxicity against human COLO 205 cells incubated for 48 hrs in presence of SN38 by SRB assay; assay type: functional, cell-based; settings: COLO 205, 48 h
[3] = Toxicity in AOM/DSS-induced orthotopic CRC BALB/c mouse model assessed as body weight loss at 15 mg/kg, iv administered once every 2 days for 2 weeks; assay type: organism-based; settings: in vivo, 336 h
HCT-116 [4] = assay: Cytotoxicity against human HCT-116 cells incubated for 48 hrs in presence of SN38 by SRB assay; assay type: functional, cell-based; settings: HCT-116, 48 h
[5] = Toxicity in AOM/DSS-induced orthotopic CRC BALB/c mouse model assessed as lesions in liver at 15 mg/kg, iv administered once every 2 days for 2 weeks by H&E staining based analysis; assay type: organism-based; settings: in vivo, 336 h
COLO 205 [6] = assay: Cytotoxicity against human COLO 205 cells incubated for 48 hrs by SRB assay; assay type: functional, cell-based; settings: COLO 205, 48 h
[7] = Toxicity in AOM/DSS-induced orthotopic CRC BALB/c mouse model assessed as lesions in spleen at 15 mg/kg, iv administered once every 2 days for 2 weeks by H&E staining based analysis; assay type: organism-based; settings: in vivo, 336 h
[8] = Toxicity in AOM/DSS-induced orthotopic CRC BALB/c mouse model assessed as lesions in lung at 15 mg/kg, iv administered once every 2 days for 2 weeks by H&E staining based analysis; assay type: organism-based; settings: in vivo, 336 h
HT-29 [9] = assay: Cytotoxicity against human HT-29 cells incubated for 48 hrs in presence of SN38 by SRB assay; assay type: functional, cell-based; settings: HT-29, 48 h
[10] = Toxicity in AOM/DSS-induced orthotopic CRC BALB/c mouse model assessed as lesions in heart at 15 mg/kg, iv administered once every 2 days for 2 weeks by H&E staining based analysis; assay type: organism-based; settings: in vivo, 336 h
[11] = Toxicity in AOM/DSS-induced orthotopic CRC BALB/c mouse model assessed as lesions in stomach at 15 mg/kg, iv administered once every 2 days for 2 weeks by H&E staining based analysis; assay type: organism-based; settings: in vivo, 336 h
HT-29 [12] = assay: Cytotoxicity against human HT-29 cells incubated for 48 hrs by SRB assay; assay type: functional, cell-based; settings: HT-29, 48 h
[13] = Toxicity in AOM/DSS-induced orthotopic CRC BALB/c mouse model assessed as lesions in kidney at 15 mg/kg, iv administered once every 2 days for 2 weeks by H&E staining based analysis; assay type: organism-based; settings: in vivo, 336 h
[14] = Toxicity in AOM/DSS-induced orthotopic CRC BALB/c mouse model assessed as body weight loss at 13 mg/kg, iv administered once every 2 days for 2 weeks; assay type: organism-based; settings: in vivo, 336 h
[15] = Toxicity in AOM/DSS-induced orthotopic CRC BALB/c mouse model assessed as lesions in kidney at 13 mg/kg, iv administered once every 2 days for 2 weeks by H&E staining based analysis; assay type: organism-based; settings: in vivo, 336 h
[16] = Toxicity in AOM/DSS-induced orthotopic CRC BALB/c mouse model assessed as lesions in liver at 13 mg/kg, iv administered once every 2 days for 2 weeks by H&E staining based analysis; assay type: organism-based; settings: in vivo, 336 h
[17] = Antitumor activity against AOM/DSS-induced orthotopic CRC BALB/c mouse model assessed as reduction in tumor area at 13 mg/kg, iv administered once every 2 days for 2 weeks by dissecting microscopic analysis relative to control; assay type: functional, Colorectal cancer cell; set-up: scale not given: the % may be the effect or the level left
[18] = Toxicity in AOM/DSS-induced orthotopic CRC BALB/c mouse model assessed as body weight loss at 14 mg/kg, ip administered every other day for 2 weeks in presence of Irinotecan; assay type: organism-based; settings: in vivo, 336 h
[19] = Toxicity in AOM/DSS-induced orthotopic CRC BALB/c mouse model assessed as lesions in spleen at 13 mg/kg, iv administered once every 2 days for 2 weeks by H&E staining based analysis; assay type: organism-based; settings: in vivo, 336 h
[20] = Toxicity in AOM/DSS-induced orthotopic CRC BALB/c mouse model assessed as lesions in lung at 13 mg/kg, iv administered once every 2 days for 2 weeks by H&E staining based analysis; assay type: organism-based; settings: in vivo, 336 h
[21] = Toxicity in AOM/DSS-induced orthotopic CRC BALB/c mouse model assessed as lesions in stomach at 13 mg/kg, iv administered once every 2 days for 2 weeks by H&E staining based analysis; assay type: organism-based; settings: in vivo, 336 h
[22] = Antitumor activity against AOM/DSS-induced orthotopic CRC BALB/c mouse model assessed as reduction in tumor area at 13 mg/kg, iv administered once every 2 days for 2 weeks in presence of SN38 by dissecting microscopic analysis relative to control; assay type: functional, Colorectal cancer cell; set-up: scale not given: the % may be the effect or the level left
[23] = Toxicity in AOM/DSS-induced orthotopic CRC BALB/c mouse model assessed as lesions in heart at 13 mg/kg, iv administered once every 2 days for 2 weeks by H&E staining based analysis; assay type: organism-based; settings: in vivo, 336 h
[24] = Stability in human plasma assessed as half life by RP-HPLC analysis; assay type: ADME, cell-free
[25] = Toxicity in AOM/DSS-induced orthotopic CRC BALB/c mouse model assessed as lesions in stomach at 20 to 40 mg/kg, iv administered once every 2 days for 2 weeks by H&E staining based analysis; assay type: organism-based; settings: in vivo, 336 h, dose 20-40 mg/kg
[26] = Toxicity in AOM/DSS-induced orthotopic CRC BALB/c mouse model assessed as lesions in lung at 20 to 40 mg/kg, iv administered once every 2 days for 2 weeks by H&E staining based analysis; assay type: organism-based; settings: in vivo, 336 h, dose 20-40 mg/kg
[27] = Drug uptake in human COLO 205 cells assessed as drug internalization in presence of 4.5 g/L glucose by fluorescence based assay; assay type: ADME, cell-based
[28] = Toxicity in AOM/DSS-induced orthotopic CRC BALB/c mouse model assessed as lesions in heart at 20 to 40 mg/kg, iv administered once every 2 days for 2 weeks by H&E staining based analysis; assay type: organism-based; settings: in vivo, 336 h, dose 20-40 mg/kg
[29] = Prodrug conversion in lung of BALB/c mouse assessed as SN38 release at 40 mg/kg, iv measured after 4 hrs by UHPLC-MS/MS analysis; assay type: ADME, organism-based; settings: in vivo
[30] = Toxicity in AOM/DSS-induced orthotopic CRC BALB/c mouse model assessed as lesions in kidney at 20 to 40 mg/kg, iv administered once every 2 days for 2 weeks by H&E staining based analysis; assay type: organism-based; settings: in vivo, 336 h, dose 20-40 mg/kg
[31] = Antitumor activity against AOM/DSS-induced orthotopic CRC BALB/c mouse model assessed as reduction in tumor area at 40 mg/kg, iv administered once every 2 days for 2 weeks by dissecting microscopic analysis relative to control; assay type: functional, Colorectal cancer cell; set-up: scale not given: the % may be the effect or the level left
[32] = Prodrug conversion in buffer assessed as SN38 release at 1 uM measured for 2 hrs by UHPLC-MS/MS analysis; assay type: ADME
[33] = Toxicity in AOM/DSS-induced orthotopic CRC BALB/c mouse model assessed as lesions in liver at 20 to 40 mg/kg, iv administered once every 2 days for 2 weeks by H&E staining based analysis; assay type: organism-based; settings: in vivo, 336 h, dose 20-40 mg/kg
[34] = Stability in human plasma assessed as formation of carboxylate product measured for 72 hrs by RP-HPLC analysis; assay type: ADME, cell-free
[35] = Toxicity in AOM/DSS-induced orthotopic CRC BALB/c mouse model assessed as lesions in spleen at 20 to 40 mg/kg, iv administered once every 2 days for 2 weeks by H&E staining based analysis; assay type: organism-based; settings: in vivo, 336 h, dose 20-40 mg/kg
[36] = Toxicity in AOM/DSS-induced orthotopic CRC BALB/c mouse model assessed as body weight loss at 40 mg/kg, iv administered once every 2 days for 2 weeks; assay type: organism-based; settings: in vivo, 336 h
Colorectal cancer cell = assay: Antitumor activity against AOM/DSS-induced orthotopic CRC BALB/c mouse model assessed as reduction in tumor area administered intravenously once every 2 days for 2 weeks by dissecting microscopic analysis; assay type: functional; settings: dose 20-40 mg/kg, route iv

With `O=C(CCc1ccc(O)cc1)c1c(O)cc(OCCOCCOCCS)cc1O[C@@H]1O[C@H](CO)[C@@H](O)[C@H](O)[C@H]1O` the pIC50 (HCT-116 [1]) was < 4.00, the pIC50 (COLO 205 [2]) was 6.85 and the Activity [3] was “Non-Toxic”. The pIC50 (HCT-116 [4]) was 7.34, the Activity [5] was “Non-Toxic” and the pIC50 (COLO 205 [6]) was < 4.00. The Activity [7] was “Non-Toxic”, the Activity [8] was “Non-Toxic” and the pIC50 (HT-29 [9]) was 6.48. For the same compound, the Activity [10] was “Non-Toxic”, the Activity [11] was “Non-Toxic” and the pIC50 (HT-29 [12]) was < 4.00. The Activity [13] was “Non-Toxic”.
With `O=C(CCc1ccc(O)cc1)c1c(O)cc(OCCOCCOCCS)cc1O` the Activity [14] was “Non-Toxic”, the Activity [15] was “Non-Toxic” and the Activity [16] was “Non-Toxic”. For the same compound, the pIC50 (COLO 205 [2]) was 6.82, the pIC50 (HCT-116 [4]) was 7.25 and the Activity [17] was 35%. The Activity [18] was “Non-Toxic”, the pIC50 (COLO 205 [6]) was < 4.00 and the Activity [19] was “Non-Toxic”. For the same compound, the pIC50 (HT-29 [9]) was 6.44, the Activity [20] was “Non-Toxic” and the Activity [21] was “Non-Toxic”. The Activity [22] was 55% and the Activity [23] was “Non-Toxic”.
`CCc1c2c(nc3ccc(OC(=O)OCCSSCCOCCOCCOc4cc(O)c(C(=O)CCc5ccc(O)cc5)c(O[C@@H]5O[C@H](CO)[C@@H](O)[C@H](O)[C@H]5O)c4)cc13)-c1cc3c(c(=O)n1C2)COC(=O)[C@]3(O)CC` gave a pIC50 (HCT-116 [1]) of 7.37, a pIC50 (COLO 205 [6]) of 6.19 and a half-life [24] of 0.333 h. The pIC50 (HT-29 [12]) was 6.29.
For `CCc1c2c(nc3ccc(OCc4ccc(NC(=O)[C@H](CCCNC(N)=O)NC(=O)[C@@H](NC(=O)CCCCN5C(=O)CC(SCCOCCOCCOc6cc(O)c(C(=O)CCc7ccc(O)cc7)c(O)c6)C5=O)C(C)C)cc4)cc13)-c1cc3c(c(=O)n1C2)COC(=O)[C@]3(O)CC` (stereo partly drawn), the Activity [25] was “Non-Toxic”, the pIC50 (HCT-116 [1]) was 5.13 and the Activity [26] was “Non-Toxic”. The Drug uptake [27] was “Active”, the Activity [28] was “Non-Toxic” and the Drug metabolism [29] was “Metabolite_Notdetected”. For the same compound, the Activity [30] was “Non-Toxic”, the Activity [31] was 75% and the Drug metabolism [32] was “Not Active”. For the same compound, the Activity [33] was “Non-Toxic”, the pIC50 (COLO 205 [6]) was 5.34 and the Stability [34] was “Stable”. The Activity [35] was “Non-Toxic”, the Activity [36] was “Non-Toxic” and the half-life [24] was 36 h. The Activity (Colorectal cancer cell) was “Dose-Dependent Effect” and the pIC50 (HT-29 [12]) was < 4.00.
